Experimental findings from US8614219B2, “Substituted pyrimidin-4-one derivatives” (Sanofi-aventis, priority 2008, dated 2013) are described below.

This assay has as its target GSK3β (Homo sapiens, UniProt P49841). Briefly: Inhibitory activity against GSK3β (33P-ATP phosphorylation of prephosphorylated GS1 peptide, four protocols). It counts as biochemical. As to conditions: protocol 4: commercial GSK3beta (Millipore), 7.5 μM GS1 peptide, 10 μM ATP, 50 mM Hepes pH 7.2, 90 minutes at room temperature. The procedure:
Four different protocols can be used. In a first protocol: 7.5 μM of prephosphorylated GS1 peptide and 10 μM ATP (containing 300,000 cpm of ^33P-ATP) were incubated in 25 mM Tris-HCl, pH 7.5, 0.6 mM DTT, 6 mM MgCl2, 0.6 mM EGTA, 0.05 mg/ml BSA buffer for 1 hour at room temperature in the presence of GSK3beta (total reaction volume: 100 microliters). In a second protocol: 4.1 μM of prephosphorylated GS1 peptide and 42 μM ATP (containing 260,000 cpm ^33P-ATP) were incubated in 80 mM Mes-NaOH, pH 6.5, 1 mM Mg acetate, 0.5 mM EGTA, 5 mM 2-mercaptoethanol, 0.02% Tween 20, 10% glycerol buffer for 2 hours at room temperature in the presence of GSK3beta. In a third protocol: 7.5 μM of prephosphorylated GS1 peptide and 10 μM ATP (containing 300,000 cpm of ^33P-ATP) were incubated in 50 mM Hepes, pH 7.2, 1 mM DTT, 1 mM MgCl2, 1 mM EGTA, 0.01% Tween 20 buffer for one hour at room temperature in the presence of GSK3beta (total reaction volume: 100 microliters). In a fourth protocol: 7.5 μM of prephosphorylated GS1 peptide and 10 μM ATP (containing 300,000 cpm of ^33P-ATP) were incubated in 50 mM Hepes, pH 7.2, 1 mM DTT, 1 mM MgCl2, 1 mM EGTA, 0.01% Tween 20 buffer for 90 minutes at room temperature in the presence of commercial GSK3beta (Millipore) (total reaction volume: 100 microliters). Inhibitors were solubilized in DMSO (final solvent concentration in the reaction medium, 1%). The reaction was stopped with 100 microliters of a solution made of 25 g polyphosphoric acid (85% P2O5), 126 ml 85% H3PO4, H2O to 500 ml and then diluted to 1:100 before use. An aliquot of the reaction mixture was then transferred to Whatman P81 cation exchange filters and rinsed with the solution described above. Incorporated ^33P radioactivity was determined by liquid scintillation spectrometry. The phosphorylated GS-1 peptide had the following sequence: NH2-[…](P)EDEE-COOH. (Woodgett, J. R. (1989) Analytical Biochemistry 180, 237-241.

Chain of GSK3β (P49841 whole entry): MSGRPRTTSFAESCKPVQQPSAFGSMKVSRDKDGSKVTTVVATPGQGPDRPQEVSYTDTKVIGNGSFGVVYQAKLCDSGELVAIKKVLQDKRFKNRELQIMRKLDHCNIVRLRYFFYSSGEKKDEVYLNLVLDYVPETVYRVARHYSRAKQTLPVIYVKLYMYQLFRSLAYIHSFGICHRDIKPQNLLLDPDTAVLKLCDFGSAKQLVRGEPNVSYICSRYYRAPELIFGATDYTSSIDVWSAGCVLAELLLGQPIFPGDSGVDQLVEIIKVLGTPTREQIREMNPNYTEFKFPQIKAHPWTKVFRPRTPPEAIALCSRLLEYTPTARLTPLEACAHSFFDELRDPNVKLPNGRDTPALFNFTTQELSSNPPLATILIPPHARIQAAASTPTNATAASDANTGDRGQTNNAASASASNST

On to `COc1ccccc1NC(=O)C1CCCn2c1nc(-c1ccncn1)cc2=O` (racemic) [compound No. 1 of table 1, (+/−)-4-oxo-2-pyrimidin-4-yl-6,7,8,9-tetrahydro-4H-pyrido[1,2-a]pyrimidine-9-carboxylic acid N-(2-methoxy-phenyl)-amide], for which the IC50 came to 27 nM. The result for `COc1cc(Cl)ccc1C(=O)NCC1CCCn2c1nc(-c1ccncn1)cc2=O` (racemic) [compound No. 8 of table 1, (+/−)-4-Chloro-2-methoxy-N-(4-oxo-2-pyrimidin-4-yl-6,7,8,9-tetrahydro-4H-pyrido[1,2-a]pyrimidin-9-ylmethyl)-benzamide] reads 19 nM; that for `COc1cc(Cl)ccc1C(=O)NCC1CCCCn2c1nc(-c1ccncn1)cc2=O` (racemic) [compound No. 2 of table 2, (+/−)-4-Chloro-2-methoxy-N-(4-oxo-2-pyrimidin-4-yl-4,6,7,8,9,10-hexahydro-pyrimido[1,2-a]azepin-10-ylmethyl)-benzamide], 30 nM.
